The values below come from patent publication US20260001863A1, “NOVEL PYRIDAZINES” (Boehringer Ingelheim International GmbH, priority 2019, published 2026).

Structures are written as SMILES.

One experiment has as its target Human ATX (Homo sapiens (Human), UniProt Q13822). The experiment is described as follows: Assay A: Biochemical ATX Assay. As to conditions: 5 nM recombinant ATX, 18:1 LPC substrate, 2 h at room temperature, formation of 18:1 LPA by RapidFire MS.
Another experiment deals with plasma LPA. Kind of experiment: Assay C: In Vivo (plasma LPA reduction after oral dosing). The note with it: rats, oral 5 mg/kg, plasma 8 hours post application vs baseline; sum of LPA 16:0, 18:0, 18:1, 18:2, 20:4. The method, then:
The test substance was solubilized in 0.5% natrosol supplemented with 0.015% Tween 80 for oral application to rats at a dose of 5 mg/kg. Blood samples were collected before compound administration and 8 hours post application on ice using EDTA as coagulation agent. Subsequently, plasma was prepared by centrifugation and stored until analysis at −20° C.
LPAs from plasma samples were extracted by using the procedure described by Scherer et al. (Clinical chemistry 2009, 55, 1218-22). 35 μL of heparinized plasma was mixed with 200 μL 40 mM disodium hydrogen phosphate buffer containing 30 mM citric acid (pH 4) and 1 μM 17:0 LPA (internal standard). Subsequently, 500 μL butanol was added and shaken vigorously for 10 min. Samples were centrifuged afterwards at 4000 rpm, 4° C., for 10 min. 500 μL of the organic upper phase was transferred to a fresh 96-deep-well plate and evaporated with a gentle nitrogen flow of 15 psi for 45 min. The resultant residual was dissolved in 100 μL ethanol prior to LC-MS analysis.
A Triple Quad 6500 (ABSciex, Toronto, Canada) was equipped with an Agilent 1290 LC system (Agilent, Santa Clara, CA) a CTC autosampler and an Atlantis 50×2.1-mm, 3-μm HILIC LC column (Waters, Elstree, UK). Eluent A contained 0.2% formic acid and 50 mM ammonium formate in water, whereas eluent B consisted of 0.2% formic acid in acetonitrile. […] At 1.8 min, solvent B was set back to 95% and stayed constant for 0.7 min for re-equilibration of the column. The following LPA species were monitored (DP: declustering potential and CE: collision energy): 16:0 LPA at 409.2/152.8, DP=−150, CE=−28; 18:0 LPA at 437.3/152.8, DP=−60, CE=−28; 18:1 LPA at 435.2/152.8, DP=−40, CE=−28; 18:2 LPA at 433.2/152.8, DP=−150, CE=−28; 20:4 LPA at 457.2/152.8, DP=−100, CE=−29 and 17:0 LPA at 423.5/152.8, DP=−100, CE=−36. LPA depletion in percent was calculated based on the baseline LPA levels before test compound application. The sum of LPA refers to the species 16:0; 18:0; 18:1; 18:2 and 20:4

Experimental for Human ATX: 5 nM recombinant ATX (Cayman Chemicals) was supplemented to 50 mM Tris buffer (pH 8.0) containing 3 mM KCl, 1 mM CaCl2, 1 mM MgCl2 0.14 mM NaCl, and 0.1% bovine serum albumin. Test compounds were dissolved in DMSO and tested in the range of 0.1 nM to 10 μM. The enzymatic reaction (22.5 μL) was started by addition of 2.5 μL 10 μM 18:1 LPC (Avanti Lipids, Alabaster, AL, USA). After 2-h incubation at room temperature, the reaction was stopped by addition of 20 μL water containing 500 nM 20:4 LPA as internal standard and 100 μL 1-butanol for extracting LPA. Subsequently, the plates were centrifuged at 4000 rpm, 4° C., for 2 min. The resultant upper butanol phase was directly used for injection at a RapidFire system (Agilent).
The RapidFire autosampler was coupled to a binary pump (Agilent 1290) and a Triple Quad 6500 (ABSciex, Toronto, Canada). […] 1 The MS was operated in negative mode with a source temperature of 550° C., curtain gas=35, gas 1=65, and gas 2=80. The following transitions and MS parameters (DP: declustering potential and CE: collision energy) for the respective LPAs were determined: • 18:1 LPA at 435.2/152.8, DP=−40, CE=−28 and 20:4 LPA at 457.2/152.8, DP=−100, CE=−27).
The formation of 18:1 LPA was monitored and evaluated as ratio to 20:4 LPA.

Turning to `CC(=O)N1CC2(C1)CN(c1ccc(CNc3ccc(OCc4ccc(C(F)(F)F)nc4)nn3)cc1)C2` [Example 1.1, 1-(6-(4-(((6-((6-(trifluoromethyl)pyridin-3-yl)methoxy)pyridazin-3-yl)amino)methyl)phenyl)-2,6-diazaspiro[3.3]heptan-2-yl)ethan-1-one], at Human ATX, the IC50 (commonly the concentration needed to halve the response being measured) was 3.4 nM. For the same compound, the “LPA reduction at 8 h” value in the experiment on plasma LPA came out at 96.5%.
The like results for `CC(=O)N1CC2(C1)CN(c1ccc(CNc3ccc(OCc4ccc(C(F)F)nc4)nn3)cc1)C2` [Example 1.2] were, in that order, 2.9 nM and 96.7%.
On to `CC(=O)N1CCN(c2ccc(CNc3ccc(OCc4ccc(C(F)F)nc4)nn3)cc2F)CC1` [Example 1.3], for which the IC50 on Human ATX worked out at 1.5 nM.
Take `CC(=O)N1CCN(c2ccc(CNc3ccc(OCc4ccc(C(F)F)nc4)nn3)c(F)c2)CC1` [Example 1.4]: the IC50 on Human ATX was determined as 3.3 nM.
Still for that read-out and setting: the value for `CN1CC2(CC1=O)CN(c1ccc(CNc3ccc(OCc4ccc(C(F)F)nc4)nn3)cc1)C2` [Example 1.5] was 3.9 nM.
As for `CC(=O)N1CCC2(CC1)CN(c1ccc(CNc3ccc(OCc4ccc(C(F)F)nc4)nn3)cc1)C2` [Example 1.6], on Human ATX, the half-inhibitory concentration (IC50) was determined as 6.5 nM.
The same measure, in the same setting: in the case of `CC(=O)N1CCN(c2ccc(CNc3ccc(OCc4ccc(C(F)F)nc4)nn3)cc2)CC1(C)C` [Example 1.7] it was 1.6 nM.
Regarding `CCc1nc2c(C)cc(N3CCN(CC(=O)N4CC(O)C4)CC3)cn2c1N(C)c1nc(-c2ccc(F)cc2)c(C#N)s1` [Example 2 in WO2014/139882, reference compound], the “LPA reduction at 8 h” value in the experiment with plasma LPA is 58.1%.
For the compound `CC(=O)N(C)C1CCN(c2ccc(CNc3ccc(OCc4ccc(C(F)(F)F)nc4)nn3)cc2)CC1` [Example 2.1, N-methyl-N-[1-(4-{[(6-{[6-(trifluoromethyl)pyridin-3-yl]methoxy}pyridazin-3-yl)amino]methyl}phenyl)piperidin-4-yl]acetamide], the IC50 at Human ATX was found to be 2.3 nM.
In the case of `CC(=O)N1CCN(c2ccc(CNc3ccc(OCc4ccc(C(F)(F)F)nc4)nn3)cc2)CC1` [Example 2.2], the IC50 at Human ATX amounted to 3 nM. Besides, the “LPA reduction at 8 h” value in the experiment with plasma LPA was 94.1%.
As for `CC(=O)N1CCN(c2ccc(CNc3ccc(OCc4ccc(C(F)F)nc4)nn3)cn2)CC1` [Example 2.3], the IC50 on Human ATX is 2.2 nM.
For the compound `CC(=O)N1CCN(c2ccc(CNc3ccc(OCc4ccc(C(F)F)nc4)nn3)nc2)CC1` [Example 2.4], the IC50 at Human ATX amounted to 1.9 nM.
On to `CC(=O)N1CCN(c2ccc(CNc3ccc(OCc4ccc(C(F)(F)F)nc4)nn3)cn2)CC1` [Example 2.5], for which the IC50 at Human ATX was found to be 2.5 nM. Also, the “LPA reduction at 8 h” value in the experiment with plasma LPA turned out to be 95.9%.
As for `CC(=O)N1CC2CC1CN2c1ccc(CNc2ccc(OCc3ccc(C(F)F)nc3)nn2)cc1` (centres unmarked) [Example 2.6], the IC50 on Human ATX is 1.8 nM.
`CC(=O)N1CCN(c2ccc(CNc3ccc(OCc4ccc(C(F)F)nc4)nn3)c(C(F)(F)F)c2)CC1` [Example 2.7]: the IC50 on Human ATX is 1.9 nM.
Same read-out and setting: the value for `FC(F)(F)c1ccc(COc2ccc(NCc3ccc(N4CCN(C5COC5)CC4)cc3)nn2)cn1` [Example 2.8] was 2 nM; that for `CC(=O)N1CC2(C1)CN(c1ccc(CNc3ccc(OCc4ccc(C(F)(F)F)nc4)nn3)cc1F)C2` [Example 2.9] was 3.7 nM.
Consider `FC(F)c1ccc(COc2ccc(NCc3ccc(N4CCN(C5COC5)CC4)cc3)nn2)cn1` [Example 2.10], for which the IC50 at Human ATX is 1.8 nM.
The same measure, in the same setting: the value for `CC(=O)N[C@H]1[C@@H]2CN(c3ccc(CNc4ccc(OCc5ccc(C(F)(F)F)nc5)nn4)cc3)C[C@@H]21` [Example 2.11] was 3.8 nM.
Regarding `CC(=O)N1CCN(c2ccc(CNc3ccc(OCc4cnc(C(F)F)c(F)c4)nn3)cc2)CC1` [Example 2.12], at Human ATX, the IC50 was found to be 3.5 nM. Moreover, the “LPA reduction at 8 h” value in the experiment with plasma LPA was determined as 94.6%.
Turning to `CC(=O)N1C[C@@H]2CN(c3ccc(CNc4ccc(OCc5ccc(C(F)(F)F)nc5)nn4)cc3)C[C@@H]2C1` [Example 2.13], at Human ATX, the IC50 was found to be 4 nM.
`CC(=O)N1C[C@@H]2CN(c3ccc(CNc4ccc(OCc5ccc(C(F)F)nc5)nn4)cc3)C[C@@H]2C1` [Example 2.14]: the IC50 on Human ATX came out at 4.4 nM.
In the case of `CC(=O)N1CCN(c2ccc(CNc3ccc(OCc4ccc(C(F)(F)F)nc4)nn3)nc2)CC1` [Example 2.15], at Human ATX, the IC50 was 2.2 nM.
Turning to `CC(=O)N1CCC2(CC1)CN(c1ccc(CNc3ccc(OCc4ccc(C(F)F)nc4)nn3)nc1)C2` [Example 2.16], at Human ATX, the IC50 is 10.4 nM.
As for `CC(=O)N1CCC2(CC1)CN(c1ccc(CNc3ccc(OCc4ccc(C(F)(F)F)nc4)nn3)cn1)C2` [Example 2.17], at Human ATX, the IC50 turned out to be 5.2 nM.
Still for that read-out and setting: in the case of `CC(=O)N1CCC2(CC1)CN(c1ccc(CNc3ccc(OCc4ccc(C(F)F)nc4)nn3)cn1)C2` [Example 2.18] it was 9.2 nM; in that of `CC(=O)N1CC2CCC(C1)N2c1ccc(CNc2ccc(OCc3ccc(C(F)(F)F)nc3)nn2)cc1` [Example 2.19], 2.4 nM.
Turning to `CC(=O)N1CC2CCC1CN2c1ccc(CNc2ccc(OCc3ccc(C(F)(F)F)nc3)nn2)cc1` (centres unmarked) [Example 2.20], the half-maximal inhibitory concentration (IC50) at Human ATX stood at 2.9 nM.
On to `CC(=O)N1CC2(C1)CN(c1ccc(CNc3ccc(OCc4ccc(C(F)(F)F)nc4)nn3)c(F)c1)C2` [Example 2.21], for which the IC50 on Human ATX is 2.4 nM.
Still for that read-out and setting: in the case of `CC(=O)N1CCC2(CC1)CN(c1ccc(CNc3ccc(OCc4ccc(C(F)(F)F)nc4)nn3)cc1)C2` [Example 2.22] it was 6.2 nM.
For `CC(=O)N1CC2CC1CN2c1ccc(CNc2ccc(OCc3ccc(C(F)(F)F)nc3)nn2)cc1` (centres unmarked) [Example 2.23], the IC50 on Human ATX is 3.9 nM.
As to `CC(=O)N1CCN(c2ccc(CNc3ccc(OCc4ccc(C(F)F)nc4)nn3)cc2)CC1` [Example 3, 1-[4-(4-{[(6-{[6-(Difluoromethyl)pyridin-3-yl]methoxy}pyridazin-3-yl)amino]methyl}-phenyl)piperazin-1-yl]ethan-1-one], the IC50 on Human ATX is 2.9 nM. Besides, the “LPA reduction at 8 h” value with plasma LPA turned out to be 99.9%.
For the compound `CC(=O)N1CC[C@@H]2CN(c3ccc(CNc4ccc(OCc5ccc(C(F)(F)F)nc5)nn4)cc3)C[C@@H]2CC1` [Example 4, 1-[(3aR,8aS)-2-(4-{[(6-{[6-(trifluoromethyl)pyridin-3-yl]methoxy}pyridazin-3-yl)amino]methyl}phenyl)-decahydropyrrolo[3,4-d]azepin-6-yl]ethan-1-one], the IC50 at Human ATX came out at 8.6 nM.
On the same count and under the same terms, the value for `CC(=O)N1C[C@@H]2[C@H](C1)[C@H]1CN(c3ccc(CNc4ccc(OCc5ccc(C(F)(F)F)nc5)nn4)cc3)C[C@@H]21` [Example 5, 1-((3aR,3bS,6aR,6bS)-5-(4-(((6-((6-(trifluoromethyl)pyridin-3-yl)methoxy)pyridazin-3-yl)amino)methyl)phenyl)octahydrocyclobuta[1,2-c:3,4-c′]dipyrrol-2(1H)-yl)ethan-1-one] was 7 nM.
As to `O=C(NC[C@@H]1[C@H]2CN(C(=O)OCc3cc(C(F)(F)F)cc(C(F)(F)F)c3)C[C@@H]12)c1ccc2[nH]nnc2c1` [reference compound], the “LPA reduction at 8 h” value in the experiment with plasma LPA came out at 40.7%.
